Measurements published in US20260176260A1, “DUAL RAF AND TUBULIN INHIBITORS AND METHODS OF USE THEREOF” (Deciphera Pharmaceuticals, LLC, priority 2023, published 2026).

Columns and labels:
B-Raf kinase = target: T1, B-Raf kinase (Homo sapiens, UniProt P15056); assay: Biochemical assay for B-Raf (coupled pyruvate kinase/lactate dehydrogenase); settings: Table 5; read-out: BRAF
T1 construct: purchased Sigma

C-Raf kinase = target: T2, C-Raf kinase (Homo sapiens, UniProt P04049, Y340D/Y341D); assay: Biochemical assay for C-Raf (coupled pyruvate kinase/lactate dehydrogenase); settings: Table 5; read-out: CRAF
T2 construct: C-Raf residues 306-end; Y340D, Y341D with N-; purchased Sigma

MiaPaca-2 cells = assay: MiaPaca-2 cell proliferation assay (resazurin); assay type: cell-based; settings: Table 5; read-out: MiaPaca-2
HCT-116 cells = assay: HCT-116 cell proliferation assay (resazurin); assay type: cell-based; settings: Table 5; read-out: HCT-116
In short: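 HCT-116 cells, 375 per well in McCoy's 5A with 10% FBS, exposed to serially diluted compound in triplicate for 67-72 h at 37 °C. Resazurin added for 4-5 h more; fluorescence (ex 540/em 600 nm) fitted to IC50.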

HPAF-II cells = assay: HPAF-II cell proliferation assay (resazurin); assay type: cell-based; settings: Table 5; read-out: HPAF-II
In short: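 Serial compound dilutions in triplicate with 750 cells/well in complete MEM with 10% FBS, 115 to 120 h at 37° C, 5% CO2. Resazurin then added for 18 to 24 h; fluorescence at ex 540/em 600 nm used to derive IC50.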

Porcine Brain Tubulin = target: T3, Porcine Brain Tubulin (Sus scrofa, UniProt P02550+P02554); assay: Biochemical tubulin polymerization assay; settings: Table 5; read-out: Tubulin Biochem
T3 construct: Porcine Brain Tubulin (T240); purchased Cytoskeleton, Inc T240; BK011P; host or cells: porcine brain

[1] = tested on: tubulin polymerization in HCT-116 cells; assay: Cellular tubulin polymerization assay (pellet/supernatant a-tubulin, HCT-116 cells); assay type: cell-based; settings: Table 5, HCT-116 cells; read-out: Tubulin Cellular
Procedure: HCT-116 cells (catalog #CCL-247) are obtained from the American Type Culture Collect (ATCC, Manassas, VA). Briefly, cells are grown in McCoy's 5A supplemented with 10% characterized fetal bovine serum (Invitrogen, Carlsbad, CA) and 1% Penicillin/Streptomycin/L-Glutamine at 37° C., 5% CO2, and 95% humidity. Cells are expanded until reaching 70-95% confluency at which point they are sub-cultured or harvested for assay use. 450000 cells are added per well in 1500 μL complete growth medium in a tissue culture treated, 12-well plate. Plates are incubated for 18 to 24 h at 37° C., 5% CO2, and 95% humidity. At the end of the incubation, 2000 μL of base culture media is added to each well, followed by a serial dilution of compound. Plates are incubated for an additional 1 h at 37° C., 5% CO2, and 95% humidity. Lysates are generated by the addition of 100 μL Lysis and Microtubule Stabilization Buffer 1 (LMS01, Cytoskeleton Inc, Denver, CO) supplemented with GTP (BST06, Cytoskeleton Inc), ATP (BSA04, Cytoskeleton Inc), and Protease Inhibitor Cocktail Stock (PIC02, Cytoskeleton Inc). Cells are scraped off wells using a rubber cell scraper and collected in a clean 96-well plate. Lysates are centrifuged at 1000×g, 37° C. for 10 min and supernatant fraction is placed into an additional 96-well plate. The remaining pellet fraction is reconstituted in 100 μL LMS01 buffer and sonicated for 10 min. Pellet and Supernatant fractions are probed for a-tubulin via western blot analysis on the Jess System or equivalent (Bio-techne, Minneapolis, MN). Data is analyzed using Prism software (Graphpad, San Diego, CA) to calculate IC50 values.

T3 sequence (P02550 whole entry): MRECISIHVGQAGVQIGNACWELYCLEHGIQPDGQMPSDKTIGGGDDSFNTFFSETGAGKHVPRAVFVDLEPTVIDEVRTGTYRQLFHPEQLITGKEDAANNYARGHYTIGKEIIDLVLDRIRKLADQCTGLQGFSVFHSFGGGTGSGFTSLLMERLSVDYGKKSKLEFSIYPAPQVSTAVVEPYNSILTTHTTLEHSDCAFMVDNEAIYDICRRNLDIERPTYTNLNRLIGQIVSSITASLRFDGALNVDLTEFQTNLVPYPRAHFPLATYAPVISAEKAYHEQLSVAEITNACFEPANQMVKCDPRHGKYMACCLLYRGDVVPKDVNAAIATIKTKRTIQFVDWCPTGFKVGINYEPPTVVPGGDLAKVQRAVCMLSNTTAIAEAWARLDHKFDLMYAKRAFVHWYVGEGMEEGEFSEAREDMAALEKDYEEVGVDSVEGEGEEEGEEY
T3 sequence (P02554 whole entry): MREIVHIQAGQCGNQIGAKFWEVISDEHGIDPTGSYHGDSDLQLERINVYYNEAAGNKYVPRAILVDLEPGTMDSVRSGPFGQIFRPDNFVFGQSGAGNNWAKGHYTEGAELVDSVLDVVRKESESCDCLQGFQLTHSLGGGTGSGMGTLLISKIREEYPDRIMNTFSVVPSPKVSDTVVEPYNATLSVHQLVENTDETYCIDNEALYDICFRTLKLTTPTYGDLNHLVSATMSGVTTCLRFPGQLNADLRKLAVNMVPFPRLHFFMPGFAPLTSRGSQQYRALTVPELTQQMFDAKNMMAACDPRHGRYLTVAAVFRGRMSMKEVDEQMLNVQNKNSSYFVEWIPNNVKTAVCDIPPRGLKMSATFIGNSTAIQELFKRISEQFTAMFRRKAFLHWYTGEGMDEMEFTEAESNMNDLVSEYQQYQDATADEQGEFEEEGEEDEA
T1 sequence (P15056 416-766): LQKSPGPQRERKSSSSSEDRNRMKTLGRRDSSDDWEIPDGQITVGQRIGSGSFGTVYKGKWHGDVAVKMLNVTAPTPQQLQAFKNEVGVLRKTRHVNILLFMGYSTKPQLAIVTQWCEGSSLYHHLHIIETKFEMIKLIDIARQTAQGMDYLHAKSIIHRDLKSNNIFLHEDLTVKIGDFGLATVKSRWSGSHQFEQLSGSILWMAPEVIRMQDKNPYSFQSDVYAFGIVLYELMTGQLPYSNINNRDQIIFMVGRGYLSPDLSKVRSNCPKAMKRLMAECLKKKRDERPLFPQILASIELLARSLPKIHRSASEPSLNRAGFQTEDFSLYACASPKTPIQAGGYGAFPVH

In the case of Belvarafenib [reference compound], the IC50 (B-Raf kinase) is reported as less than 0.1 µM, the IC50 (C-Raf kinase) is reported as less than 0.1 µM and the IC50 (MiaPaca-2 cells) is reported as 1 to 10 µM. The IC50 (HCT-116 cells) was 0.5 to 1 µM, the IC50 (HPAF-II cells) was 1 to 10 µM and the IC50 (Porcine Brain Tubulin) was greater than 100 µM. It also gave an IC50 [1] of 1 to 10 µM.
